We go through six substances from patent US8946382B2, “Apelin peptides and methods of use” (The United States of America, as represented by the …, priority 2009, dated 2015).

For assay [1], the system named is human blood vessel endothelial (HMEC-1) cells. Description: Proliferation assay (ATPLITE), HMEC-1. The assay is classed as cell-based. The following applies: FIGS. 3E, 3F, 6. An excerpt: (§1) Proliferation response profiles of apelin, salcut-NH2, salcut-Gly, and/or salcut-OH on a variety of endothelial and tumor cell lines or primary endothelial cells were obtained using the following method. Human blood vessel endothelial cells (HMEC-1), human primary microvascular dermal EC (dB1), human lymphatic endothelial cells (LEC), human mast cells (HMC-1), human breast cancer cells (MCF-7; T47D), human gastric cancer cells (HTB 103), human lung cancer cells (A549), monkey endothelial cells (CRL 1780), and porcine aortic endothelial cells (PAE) were seeded at 25,000 cells per well at 50 μl volume in appropriate media containing 0.5% serum in a 96 well plate. After overnight incubation the peptide was added in serum free media and cells were incubated for 3-5 days. To measure growth proliferation, the adenosine triphosphate ATPLITE™ one-step assay (PerkinElmer), which is based on firefly luciferase and has high sensitivity for quantification of viable cells, was used. Data were expressed as mean plus minus standard deviation. Statistical analyses were performed using Student's t-test, p values less than 0.05 were considered statistically significant.
Endothelial cell proliferation assays were performed as described above with both spontaneously immortalized porcine aortic endothelial (PAE) cells and SV40 immortalized human dermal microvascular endothelial (HMEC-1).

The target in the next assay is T1, APJ receptor (Homo sapiens, UniProt P35414).
T1 sequence (P35414 1-380): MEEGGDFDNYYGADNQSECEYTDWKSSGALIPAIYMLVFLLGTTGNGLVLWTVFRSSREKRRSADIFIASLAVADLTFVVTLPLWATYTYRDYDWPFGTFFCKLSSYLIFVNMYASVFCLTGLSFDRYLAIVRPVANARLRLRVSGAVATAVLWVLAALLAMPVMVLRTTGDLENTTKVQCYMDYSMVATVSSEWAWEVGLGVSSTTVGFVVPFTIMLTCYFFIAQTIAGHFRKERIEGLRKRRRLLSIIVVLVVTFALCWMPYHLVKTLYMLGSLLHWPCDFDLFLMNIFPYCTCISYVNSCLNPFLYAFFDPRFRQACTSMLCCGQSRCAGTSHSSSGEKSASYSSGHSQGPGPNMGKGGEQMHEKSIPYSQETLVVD
To be noted: cited from earlier work.

The target in assay [2] is T2, apelin G protein receptor (known as APJ) (Homo sapiens, UniProt P35414).
T2 sequence (P35414 1-380): T1 sequence (P35414 1-380)
The following applies: Tatemoto et al. 1998; cited from earlier work.

Assay [3] concerns porcine aortic endothelial (PAE) cells. Description: In vitro tube formation assay. The format is cell-based. The protocol:
Porcine aortic endothelial (PAE) cells were stably transfected with Green Fluorescent Protein (GFP) and seeded at a concentration of 18,000 cells per well of a 96-well culture plate. The wells were coated with […] basement membrane matrix (Invitrogen, CA). Cells were resuspended in medium at a concentration of 2.25×10^5 to 2.5×10^5 cells/ml. An […] (18,000-20,000) cells were added per well. Positive control cells were cultured with medium supplemented with 1.0% fetal bovine serum (FBS). Negative control cells were cultured with serum-free medium. […] After three or more hours of incubation, cells were assessed for tube formation and were photographed. Assays were performed in triplicate.

Another assay has as its system MDA-MB-345 cells. Description: Binding of biotinylated salcut-NH2 to cells (fluorescent labeling). The format is cell-based, human.
Assay [4] relates to human breast cancer cell line MDA-MB-435. Description: Proliferation assay, MDA-MB-435. The format is cell-based. To be noted: for proliferative response over dose range: dose range of 1 nM to 1 uM; for relative potency in proliferation assays: salcut-NH2 of two manufacturers vs biotinylated salcut, FIG. 14A-14C. An excerpt: An N-terminal biotinylated salcut-NH2 ligand was synthesized (a single biotin moiety was attached to the amino-terminal leucine residue). Validity of the chemical composition of the biotinylated salcut-NH2 was accomplished using amino acid sequence analysis and MADLI-TOF mass spectrometry characterization.

Assay [5] relates to human breast cancer cell line MCF-7. Description: Proliferation assay (ATPLITE), MCF-7. The format is cell-based. The following applies: 1 nM to 1 μM dose range; FIG. 4A.
Text: as §1

Assay [6] relates to endothelial and tumor cell lines or primary endothelial cells. Description: Proliferation response (ATPLITE one-step assay) on a variety of endothelial and tumor cell lines. The format is cell-based. To be noted: 3E.
Text: as §1
(ATP-based viability assays read luminescence as a measure of living cells.)

The subject of assay [7] is A549 human bronchioloalveolar cancer cells. Description: Nude mouse xenograft study. The assay is classed as in vivo, nude mice. The following applies: 10 μM. The method, then:
(§2) Six week old female nude mice were used in this study; ten mice were used per test group. A549 human bronchioloalveolar cancer cells were cultured at the SAIC/Frederick facility. 1×10^7 A549 cells were injected subcutaneously in the hindquarter of each nude mouse. The following treatment regime was started seven days following tumor injection: Group 1—PBS control; Group 2—salcut-NH2 peptide (10 μM). Appropriate Groups were treated with 25 μl injections at four corners around the tumor, three times per week for five weeks. Mice were inspected, weighed, and tumors measured (H×W×L) three times per week with calipers. Following completion of the experiment, mice were euthanized, tumors excised, and cut into four pieces. Two segments were frozen and stored at −80° C. and two segments were paraffin embedded for pathology.
as §2, with “In another experiment, six” for “Six”, “(10 pM); Group 3—salcut-NH2 peptide (10 nM); Group 4—salcut-NH2 peptide (10” for “(10”, “100” for “25”, “intraperitoneally,” for “at four corners around the tumor,”, “four” for “five”

Assay [8] has as its system human gastric cancer cell line HTB-103. Description: Proliferation assay (ATPLITE), HTB 103. The assay is classed as cell-based. To be noted: FIG. 5.
Text: as §1

For a further assay, the system named is rat aortic ring. Description: Rat aortic ring assay (vessel outcropping). The format is cell-based. The protocol: On day 0, rats were euthanized and decapitated, and aortas were harvested and transferred to a culture dish containing EGM-2 with growth factors (20 ml media; Clonetics). Fibroadipose tissue and other non-aortic tissue were removed. Using dissecting microscope, the aorta was sectioned into 1 mm-long rings. Aortic rings were then rinsed 6-8× with EGM-2 with growth factors. Aortic rings were each placed in the center of a matrix (GELTREX™; Invitrogen Corp)-coated culture well. Aortic tissue was covered with 250 μl GELTREX™ and each well was incubated with 1 ml EGM-2 with growth factors supplemented for 24 hours at 37° C., 5% CO2.
On day 1, media with growth factors was removed, 250 μl of media (without growth factors) with either 0.1 nM, 1.0 nM, or 10 nM of salcut-NH2 was added to each well and incubated at 37° C., 5% CO2 for 5-7 days.

Assay [9] relates to human lung cancer cell line A549. Description: Proliferation assay (ATPLITE), A549. The format is cell-based.
Text: as §1

The test system of assay [10] is human mast cell line HMC-1. Description: Proliferation assay (ATPLITE), HMC-1. The assay is classed as cell-based. To be noted: FIG. 5.
Text: as §1

“Also recorded” adds a separate entry of the source. Where no end group is shown, it is not given here. The star is where a group is joined. Biotin = O=C1N[C@H]2[C@H](CS[C@H]2CCCCC(=O)*)N1

As for “salcut-Gly: glycine-extended form of human apelin-36 (42-57) (LVQPRGSRNGPGPWQGG; homo sapiens)”, the “effect on HMEC-1 proliferation” value in assay [1] is given as “non-responsive over the dose range tested; also recorded: minor effect on proliferation; also recorded: do not have a statistically significant effect on cell growth”; in assay [1] (listed as salcut Gly), “no effect on HMEC-1 cell proliferation”.
Regarding apelin-17, the “binding to the APJ receptor” value at APJ receptor was “can bind the APJ receptor”. Moreover, the “potency of peptide-induced acidification rates” value in assay [2] is listed as “moderately potent”.
(Ala13)-apelin-13 [reference compound]: in assay [3] (in the presence of 1 nM apelin-13, FIG. 8), the “effect of antagonist on endothelial cell tube formation” value is listed as “inhibited endothelial cell tube formation”.
For the substance “biotinylated salcut: N-terminal biotinylated salcut-NH2 ligand; a single biotin moiety attached to the amino-terminal leucine residue (Biotin-LVQPRGSRNGPGPWQG-NH2; SMILES CC(C)C[C@H](NC(=O)CCCC[C@@H]1SC[C@@H]2NC(=O)N[C@@H]21)C(=O)N[C@H](C(=O)N[C@@H](CCC(N)=O)C(=O)N1CCC[C@H]1C(=O)N[C@@H](CCCNC(=N)N)C(=O)NCC(=O)N[C@@H](CO)C(=O)N[C@@H](CCCNC(=N)N)C(=O)N[C@@H](CC(N)=O)C(=O)NCC(=O)N1CCC[C@H]1C(=O)NCC(=O)N1CCC[C@H]1C(=O)N[C@@H](Cc1c[nH]c2ccccc12)C(=O)N[C@@H](CCC(N)=O)C(=O)NCC(N)=O)C(C)C)”, in the assay on MDA-MB-345 cells, the “binding to cells (fluorescent labeling)” value is reported as “high intensity fluorescent labeling”. In assay [4], the “proliferative response over dose range” value is on record as “large change in response” and the “relative potency in proliferation assays” value is recorded as “equipotent in proliferation assays”.
“salcut-NH2: amide derivative of human apelin-36 (42-57), sixteen amino acid peptide from residues 42-57 of apelin preproprotein (LVQPRGSRNGPGPWQG-NH2)”: the “concentration at which a suppressive effect on tube formation was observed” value in [3] is recorded as “exceeding 10 nM”. For the same substance, the proliferative dose response entry in [5] was “biphasic response curve; also recorded: biphasic (rise and fall) response”; in assay [8] it was “biphasic response curves; also recorded: biphasic (rise and fall) response”; in [10] it was “biphasic response curves; also recorded: only responded to lower concentrations of salcut-NH2 by stimulating proliferation”. Further, the “concentration having a suppressive effect on cell proliferation” value in assay [6] (FIGS. 3A-3D, 3G, 3I-3O) is at least 10 nM. Further, the “cell proliferation (relative luminescent units [RLU])” value in assay [6] (compared to cells cultured in the absence of these compounds (0 Rx), FIGS. 3A-3C, 3G-3O) is “increases”. Further, the tumor growth entry in assay [7] (10 pM, 10 nM, 100 μl intraperitoneally, three times per week for four weeks, compared to PBS, FIG. 12) was “reduced tumor growth”; in assay [7] (25 μl injections at four corners around the tumor, three times per week for five weeks, compared to PBS) it was “dramatic reduction in tumor growth”; in assay [7] (100 μl intraperitoneally, three times per week for four weeks), “highly statistically significant (<0.005) suppression of tumor growth”. Also, in [1], the “effect on HMEC-1 proliferation” value is “biphasic response curve; also recorded: potent stimulators of HMEC-1 proliferation; also recorded: biphasic (rise and fall) response”. Also, the “inhibition of binding of biotinylated salcut-NH2 to cells” value with MDA-MB-345 cells (unlabeled peptide in the presence of biotinylated salcut-NH2) is listed as “can be inhibited”. Besides, the “proliferative response over dose range” value in assay [4] was “large change in response”. In addition, the “relative potency in proliferation assays” value in assay [4] is listed as “equipotent in proliferation assays”. The “number of vessels forming from the aortic ring” value in the assay on rat aortic ring (0.1 nM, 1.0 nM, 10 nM, 5-7 days, FIG. 9) is listed as “number of vessels formed increase with increasing concentration; also recorded: increased number of vessels forming from the aortic ring”. For the same substance, the “vessel formation within the aortic ring” value in the assay on rat aortic ring (10 nM dose) is recorded as “Vessels begin to form with the ring; also recorded: vessels were beginning to form within the aortic ring”. Moreover, the “effect on proliferation (stimulation)” value in assay [9] (10 nM to 100 pM range, FIG. 3D) was “neither apelin-13 (65-77) nor salcut-NH2 affect proliferation; also recorded: does not stimulate proliferation”. Further, the “effect on proliferation at higher concentrations” value in [9] (higher concentrations, 1 nM to 1 μM dose range (FIG. 4B)) is “lack of a statistically significant proliferative response; also recorded: cell growth suppressive effect at higher concentrations; also recorded: did not respond in a statistically significant manner”.
In the case of “salcut-OH: human apelin-36 (42-57), the free-acid derivative of salcut (LVQPRGSRNGPGPWQG-OH)”, the “effect on HMEC-1 proliferation” value in assay [1] is listed as “minor effect on proliferation; also recorded: do not have a statistically significant effect on cell growth”; in assay [1] (listed as Salcut-OH) it was “non-responsive over the dose range tested”; in assay [1] (listed as salcut OH), “no effect on HMEC-1 cell proliferation”.
